Data reported in US4634707A, “5-Pyrimidinecarboxamides and treatment of leukemia and tumors therewith” (Uniroyal Chemical Company, priority 1984, dated 1987).

System: L1210 leukemia
Experiment: NCI 3LE31, i.p.-implanted L1210 lymphoid leukemia
Type: in vivo, DBA/2 mice
Details: for activity in i.p.-implanted lymphoid leukemia test (in words): 3LE31, reproducible T/C of 150% or higher is considered significant activity
Protocol: The spectrum of antitumor activity of the compound of Example 1 was determined employing a number of standard National Cancer Institute (NCI) protocols. The antitumor activity was determined in vivo against several different tumors, employing various treatment schedules and routes of administration.
Samples of the test compounds of Examples 1-10 and a number of structurally-related control compounds were tested in accordance with National Cancer Institute test protocol 3LE31 (NCI Protocol 1.100, Cancer Chemotherapy Reports Part 3, Vol. 3, No. 2, September 1972) to determine the effects of the several compounds on i.p.-implanted L1210 leukemia (J. Nat'l. Cancer Inst. 13(5):1328, 1953). Each test involved implantation of the leukemia cells in six DBA/2 mice, one sex per experiment, the male mice weighing a minimum of 18 grams and the female mice weighing a minimum of 17 grams, and all of the test animals being within a three gram weight range. The test compound was administered by i.p. injections, in 0.1 ml. doses of diluted ascitic fluid (10^5 cells per dose), commencing one day after the tumor implant and continuing daily for nine days.
The test animals were weighed and survivors recorded on a regular basis during a thirty day test period. The ratio of survival time for the treated and control animals (T/C) was determined as a percentage.
The tests were carried out at varying dosage levels and with varying numbers of repetitions, depending upon the results obtained with each test compoud. […] A reproducible T/C of 150% or higher is considered significant activity.
The number of mice "cured", viz., those surviving from each animal test group after the thirty day test period, is indicated in parenthesis following the T/C percentage data in Table III below: […]

[1] = 200 mg/kg i.p. daily for nine days
[2] = Mus musculus, L1210, ip, 25 mg/kg i.p. daily for nine days, read-out: T/C % (survival time treated/control)
[3] = Mus musculus, L1210, ip, 50 mg/kg i.p. daily for nine days, read-out: T/C % (survival time treated/control)
[4] = Mus musculus, L1210, ip, 100 mg/kg i.p. daily for nine days, read-out: T/C % (survival time treated/control)
[5] = Mus musculus, L1210, ip, 200 mg/kg i.p. daily for nine days, read-out: T/C % (survival time treated/control)
[6] = 25 mg/kg i.p. daily for nine days
[7] = 50 mg/kg i.p. daily for nine days
[8] = 100 mg/kg i.p. daily for nine days

Compound | T/C % (survival time treated/control) [1] | response vs control in vivo at 25 mg/kg [2] | response vs control in vivo at 50 mg/kg [3] | response vs control in vivo at 100 mg/kg [4] | T/C % (survival time treated/control) [6] | T/C % (survival time treated/control) [7] | T/C % (survival time treated/control) [8] | other results
O=C(Nc1ccc(Cl)cc1)c1c(O)[nH]c(=S)[nH]c1=O [Control A] | Toxic | 110% | 121% | 125% |  |  |  | T/C (3LE31, upon further testing): less than 125%; activity in i.p.-implanted lymphoid leukemia test (in words): inactive
O=C(Nc1ccccc1)c1c(O)[nH]c(=O)[nH]c1=O [Control B] |  | 118% |  |  |  |  |  | number of mice cured (surviving after thirty day test period) (200 mg/kg i.p. daily for nine days, six mice): 2; activity in i.p.-implanted lymphoid leukemia test (in words): exhibited significant activity
O=C(Nc1ccccc1)c1c(O)[nH]c(=O)[nH]c1=O [Control C] |  |  |  |  |  |  |  | activity in i.p.-implanted lymphoid leukemia test (in words): exhibited significant activity; response vs control in vivo at 400 mg/kg (Mus musculus, L1210, ip, 400 mg/kg i.p. daily for nine days, read-out: T/C % (survival time treated/control)): 233%
Cc1ccccc1NC(=O)c1c(O)[nH]c(=O)[nH]c1=O [Control D] |  | 108% | 104% | 106% |  |  |  | response vs control in vivo at 200 mg/kg [5]: 124%
COc1ccc(NC(=O)c2c(O)[nH]c(=O)[nH]c2=O)cc1 [Control F] |  | 109% | 105% | 105% |  |  |  | response vs control in vivo at 200 mg/kg [5]: 117%
Cn1c(=S)[nH]c(O)c(C(=O)Nc2ccccc2)c1=O [Control G] | Toxic | 94% | 98% | 87% |  |  |  | 
Cn1c(=S)[nH]c(O)c(C(=O)Nc2ccccc2)c1=O [Control H] | Toxic |  |  |  | Toxic | Toxic | Toxic | response vs control in vivo at 1.56 mg/kg (Mus musculus, L1210, ip, 1.56 mg/kg i.p. daily for nine days, read-out: T/C % (survival time treated/control)): 97%; response vs control in vivo at 3.12 mg/kg (Mus musculus, L1210, ip, 3.12 mg/kg i.p. daily for nine days, read-out: T/C % (survival time treated/control)): 98%; response vs control in vivo at 6.25 mg/kg (Mus musculus, L1210, ip, 6.25 mg/kg i.p. daily for nine days, read-out: T/C % (survival time treated/control)): 98%; response vs control in vivo at 12.5 mg/kg (Mus musculus, L1210, ip, 12.5 mg/kg i.p. daily for nine days, read-out: T/C % (survival time treated/control)): 98%
Cn1c(=S)[nH]c(O)c(C(=O)Nc2cccc([N+](=O)[O-])c2)c1=O [Control I] |  | 102% | 98% | 102% |  |  |  | response vs control in vivo at 200 mg/kg [5]: 112%
Cn1c(=S)[nH]c(O)c(C(=O)Nc2cccc([N+](=O)[O-])c2)c1=O [Control J] | 101% |  |  |  | 100% | 94% | 104% | 
Cn1c(O)c(C(=O)Nc2ccccc2)c(=O)n(C)c1=S [Control K] | Toxic | 107% | 109% | 121% |  |  |  | 
Cn1c(O)c(C(=O)Nc2ccccc2)c(=O)n(C)c1=S [Control L] | Toxic |  |  |  | 108% | Toxic | Toxic | 
Cn1c(O)c(C(=O)Nc2ccc(Cl)cc2)c(=O)n(C)c1=S [Control M] | Toxic |  |  |  | Toxic | Toxic | Toxic | response vs control in vivo at 1.5 mg/kg (Mus musculus, L1210, ip, 1.5 mg/kg i.p. daily for nine days, read-out: T/C % (survival time treated/control)): 106%; response vs control in vivo at 3 mg/kg (Mus musculus, L1210, ip, 3 mg/kg i.p. daily for nine days, read-out: T/C % (survival time treated/control)): 92%; response vs control in vivo at 6 mg/kg (Mus musculus, L1210, ip, 6 mg/kg i.p. daily for nine days, read-out: T/C % (survival time treated/control)): 95%; response vs control in vivo at 12 mg/kg (Mus musculus, L1210, ip, 12 mg/kg i.p. daily for nine days, read-out: T/C % (survival time treated/control)): 106%; response vs control in vivo at 0.75 mg/kg (Mus musculus, L1210, ip, .75 mg/kg i.p. daily for nine days, read-out: T/C % (survival time treated/control)): 102%
Cc1ccc(C)c(NC(=O)c2c(O)n(C)c(=S)n(C)c2=O)c1 [Control N] | Toxic | 103% |  |  |  | Toxic | Toxic | 
O=C(Nc1ccccc1)c1c(O)[nH]c(=S)n(-c2ccccc2)c1=O [Control O] | Toxic | 104% | 115% | 123% |  |  |  | 
O=C(Nc1ccccc1)c1c(O)[nH]c(=S)n(-c2ccccc2)c1=O [Control P] | Toxic |  |  |  | 110% | 116% | Toxic | 
